The values that follow are results of earlier work, collected in US12310957B2, “Bowel cleansing composition” (priority 2013, dated 2025).

The data set relates to patients undergoing colonoscopy. The conditions noted are these: Nunes et al. 2008, scale proposed by the authors.

For `OC[C@@H](O)[C@@H](O)[C@H](O)[C@H](O)CO` [mannitol], the “rate of adequate bowel cleansing” value was 75%.
